# Laboratory results reported in patent US9737545B2 (MERCK SHARP & DOHME CORP., priority 2013, dated 2017).
# Target: T1, wildtype HIV-1 protease (Human immunodeficiency virus type 1 group M subtype B, UniProt P04585)
# T1 construct: preincubated with the HIV-1 protease (wild type) enzyme in assay buffer; made in house; host or cells: Escherichia coli
# Assay: Assay for Inhibition of Microbial Expressed HIV Protease (Pepcleav)
# Assay type: biochemical
# Method: Assay for Inhibition of Microbial Expressed HIV Protease (“Pepcleav”)
# Studies of the inhibition of the wildtype HIV-1 protease (which was expressed in Escherichia coli) were carried out with a peptide substrate [Val-Ser-Gln-Asn-(βnaphthyl)Ala-Pro-Ile-Val (SEQ ID NO: 1)]. The inhibitor was first preincubated with the HIV-1 protease (wild type) enzyme in assay buffer (50 mM sodium acetate, pH 5.5, 100 mM NaCl, and 0.1% BSA) for 30 minutes at room temperature. Substrate was added to 400 micromolar in a total volume of 20 microliters containing 20 picomolar HIV-1 protease (final) and the reaction was incubated for 1 hour at 30° C. The reaction was quenched with the addition of formic acid and indinavir to 0.012% and 150 nM final concentrations, respectively. The product formation was determined after separation of product and substrate on a Zorbax Eclipse XDB-C18 column connected to an API 4000 mass spectrometer (Applied Biosystems) with multiple reaction monitoring (transitions were 644.5/428.9 and 615.4/422.2 (M1/M3) for product and indinavir respectively). The extent of inhibition of the reaction was determined from the peak area of the products. Analysis of the products, independently synthesized, provided quantitation standards and confirmation of the product composition.
row,SMILES,IC50
1,"COC(=O)N[C@H](C(=O)Nc1ccccc1CC[C@@H]1CN[C@H](c2nc3ccccc3[nH]2)CO1)C(c1ccccc1)c1ccccc1 [Example 1, N-(2-{2-[(2R,5R)-5-(1H-benzimidazol-2-yl)morpholin-2-yl]ethyl}phenyl)-Nα-(methoxycarbonyl)-β-phenyl-L-phenylalaninamide]",37.4 pM
2,"COC(=O)N[C@H](C(=O)Nc1ccccc1CC[C@@H]1CN[C@H](c2nc3ccccc3n2C)CO1)C(c1ccccc1)c1ccccc1 [Example 2, methyl N-[(1S)-1-benzhydryl-2-[[2-[2-[(2R,5R)-5-(1-methylbenzimidazol-2-yl)morpholin-2-yl]ethyl]phenyl]amino]-2-oxo-ethyl]carbamate]",7960 pM
3,"COC(=O)N[C@H](C(=O)Nc1ccccc1CC[C@@H]1CN[C@H](c2nc3cccc(C)c3[nH]2)CO1)C(c1ccccc1)c1ccccc1 [Example 3, methyl N-[(1S)-1-benzhydryl-2-[[2-[2-[(2R,5R)-5-(7-methyl-1H-benzimidazol-2-yl)morpholin-2-yl]ethyl]phenyl]amino]-2-oxo-ethyl]carbamate]",63.9 pM
4,"COC(=O)N[C@H](C(=O)Nc1ccccc1CC[C@@H]1CN[C@H](c2nc3ccc(C)cc3[nH]2)CO1)C(c1ccccc1)c1ccccc1 [Example 4, methyl N-[(1S)-1-benzhydryl-2-[[2-[2-[(2R,5R)-5-(6-methyl-1H-benzimidazol-2-yl)morpholin-2-yl]ethyl]phenyl]amino]-2-oxo-ethyl]carbamate]",92.3 pM
5,"COC(=O)N[C@H](C(=O)Nc1ccccc1CC[C@@H]1CN[C@H](c2nc3ccncc3[nH]2)CO1)C(c1ccccc1)c1ccccc1 [Example 5, methyl N-[(1S)-1-benzhydryl-2-[[2-[2-[(2R,5R)-5-(3H-imidazo[4,5-c]pyridin-2-yl)morpholin-2-yl]ethyl]phenyl]amino]-2-oxo-ethyl]carbamate]",7410 pM
6,"COC(=O)N[C@H](C(=O)Nc1ccccc1CC[C@@H]1CN[C@H](c2nc3ccc(OC)cc3[nH]2)CO1)C(c1ccccc1)c1ccccc1 [Example 6, methyl N-[(1S)-1-benzhydryl-2-[[2-[2-[(2R,5R)-5-(6-methoxy-1H-benzimidazol-2-yl)morpholin-2-yl]ethyl]phenyl]amino]-2-oxo-ethyl]carbamate]",334 pM
7,"COC(=O)N[C@H](C(=O)Nc1ccccc1CC[C@@H]1CN[C@H](c2nc3ccc(S(C)(=O)=O)cc3[nH]2)CO1)C(c1ccccc1)c1ccccc1 [Example 7, methyl N-[(1S)-1-benzhydryl-2-[[2-[2-[(2R,5R)-5-(6-methylsulfonyl-1H-benzimidazol-2-yl)morpholin-2-yl]ethyl]phenyl]amino]-2-oxo-ethyl]carbamate]",37100 pM
8,"COC(=O)N[C@H](C(=O)Nc1ccccc1CC[C@@H]1CN[C@H](c2nc3ccc(C(F)(F)F)cc3[nH]2)CO1)C(c1ccccc1)c1ccccc1 [Example 8, methyl N-[(1S)-1-benzhydryl-2-oxo-2-[[2-[2-[(2R,5R)-5-[6-(trifluoromethyl)-1H-benzimidazol-2-yl]morpholin-2-yl]ethyl]phenyl]amino]ethyl]carbamate]",504 pM
9,"COC(=O)N[C@H](C(=O)Nc1ccccc1CC[C@@H]1CN[C@H](c2nc3cc(C)c(C)cc3[nH]2)CO1)C(c1ccccc1)c1ccccc1 [Example 9, methyl N-[(1S)-1-benzhydryl-2-[[2-[2-[(2R,5R)-5-(5,6-dimethyl-1H-benzimidazol-2-yl)morpholin-2-yl]ethyl]phenyl]amino]-2-oxo-ethyl]carbamate]",51.6 pM
10,"COC(=O)N[C@H](C(=O)Nc1ccccc1CC[C@@H]1CN[C@H](c2nc3ccc(C#N)cc3[nH]2)CO1)C(c1ccccc1)c1ccccc1 [Example 10, methyl N-[(1S)-1-benzhydryl-2-[[2-[2-[(2R,5R)-5-(6-cyano-1H-benzimidazol-2-yl)morpholin-2-yl]ethyl]phenyl]amino]-2-oxo-ethyl]carbamate]",1590 pM
11,"COC(=O)N[C@H](C(=O)Nc1ccccc1CC[C@@H]1CN[C@H](c2nc3ccc(Br)cc3[nH]2)CO1)C(c1ccccc1)c1ccccc1 [Example 11, methyl N-[(1S)-1-benzhydryl-2-[[2-[2-[(2R,5R)-5-(6-bromo-1H-benzimidazol-2-yl)morpholin-2-yl]ethyl]phenyl]amino]-2-oxo-ethyl]carbamate]",411 pM
12,COC(=O)N[C@H](C(=O)Nc1ccccc1CC[C@@H]1CN[C@H](c2nc3cc(Cl)c(Cl)cc3[nH]2)CO1)C(c1ccccc1)c1ccccc1 [Example 12],706 pM
13,"COC(=O)N[C@H](C(=O)Nc1ccccc1CC[C@@H]1CN[C@H](c2nc3cccc(Cl)c3[nH]2)CO1)C(c1ccccc1)c1ccccc1 [Example 13, methyl N-[(1S)-1-benzhydryl-2-[[2-[2-[(2R,5R)-5-(7-chloro-1H-benzimidazol-2-yl)morpholin-2-yl]ethyl]phenyl]amino]-2-oxo-ethyl]carbamate]",137 pM
14,"COC(=O)N[C@H](C(=O)Nc1ccccc1CC[C@@H]1CN[C@H](c2nc3cccc(Br)c3[nH]2)CO1)C(c1ccccc1)c1ccccc1 [Example 14, methyl N-[(1S)-1-benzhydryl-2-[[2-[2-[(2R,5R)-5-(7-bromo-1H-benzimidazol-2-yl)morpholin-2-yl]ethyl]phenyl]amino]-2-oxo-ethyl]carbamate]",592 pM
15,"COC(=O)N[C@H](C(=O)Nc1ccccc1CC[C@@H]1CN[C@H](c2nc3c(O)cccc3[nH]2)CO1)C(c1ccccc1)c1ccccc1 [Example 15, methyl N-[(1S)-1-benzhydryl-2-[[2-[2-[(2R,5R)-5-(4-hydroxy-1H-benzimidazol-2-yl)morpholin-2-yl]ethyl]phenyl]amino]-2-oxo-ethyl]carbamate]",55.9 pM
16,"COC(=O)N[C@H](C(=O)Nc1ccccc1CC[C@@H]1CN[C@H](c2nc3cc(F)c(F)cc3[nH]2)CO1)C(c1ccccc1)c1ccccc1 [Example 16, methyl N-[(1S)-1-benzhydryl-2-[[2-[2-[(2R,5R)-5-(5,6-difluoro-1H-benzimidazol-2-yl)morpholin-2-yl]ethyl]phenyl]amino]-2-oxo-ethyl]carbamate]",24.6 pM
17,"COC(=O)N[C@H](C(=O)Nc1ccccc1CC[C@@H]1CN[C@H](c2nc3c(F)c(F)c(F)cc3[nH]2)CO1)C(c1ccccc1)c1ccccc1 [Example 17, methyl N-[(1S)-1-benzhydryl-2-oxo-2-[[2-[2-[(2R,5R)-5-(4,5,6-trifluoro-1H-benzimidazol-2-yl)morpholin-2-yl]ethyl]phenyl]amino]ethyl]carbamate]",74.7 pM
18,"COC(=O)N[C@H](C(=O)Nc1ccccc1CC[C@@H]1CN[C@H](c2nc3ccc(F)cc3[nH]2)CO1)C(c1ccccc1)c1ccccc1 [Example 18, methyl N-[(1S)-1-benzhydryl-2-[[2-[2-[(2R,5R)-5-(6-fluoro-1H-benzimidazol-2-yl)morpholin-2-yl]ethyl]phenyl]amino]-2-oxo-ethyl]carbamate]",125 pM
19,"COC(=O)N[C@H](C(=O)Nc1ccccc1CC[C@@H]1CN[C@H](c2nc3c(Br)cc(C)cc3[nH]2)CO1)C(c1ccccc1)c1ccccc1 [Example 19, methyl N-[(1S)-1-benzhydryl-2-[[2-[2-[(2R,5R)-5-(4-bromo-6-methyl-1H-benzimidazol-2-yl)morpholin-2-yl]ethyl]phenyl]amino]-2-oxo-ethyl]carbamate]",573 pM
20,"COC(=O)N[C@H](C(=O)Nc1ccccc1CC[C@@H]1CN[C@H](c2nc3cc(F)c(Br)cc3[nH]2)CO1)C(c1ccccc1)c1ccccc1 [Example 20, methyl N-[(1S)-1-benzhydryl-2-[[2-[2-[(2R,5R)-5-(6-bromo-5-fluoro-1H-benzimidazol-2-yl)morpholin-4-ium-2-yl]ethyl]phenyl]amino]-2-oxo-ethyl]carbamate]",525 pM
21,"COC(=O)N[C@H](C(=O)Nc1ccccc1CC[C@@H]1CN[C@H](c2nc3nccnc3[nH]2)CO1)C(c1ccccc1)c1ccccc1 [Example 21, methyl N-[(1S)-1-benzhydryl-2-[[2-[2-[(2R,5R)-5-(3H-imidazo[4,5-b]pyrazin-2-yl)morpholin-2-yl]ethyl]phenyl]amino]-2-oxo-ethyl]carbamate]",1680 pM
22,"COC(=O)N[C@H](C(=O)Nc1ccccc1CC[C@@H]1CN[C@H](c2nc3cc(Cl)c(C)cc3[nH]2)CO1)C(c1ccccc1)c1ccccc1 [Example 22, methyl N-[(1S)-1-benzhydryl-2-[[2-[2-[(2R,5R)-5-(5-chloro-6-methyl-1H-benzimidazol-2-yl)morpholin-2-yl]ethyl]phenyl]amino]-2-oxo-ethyl]carbamate]",1930 pM
23,"COC(=O)N[C@H](C(=O)Nc1ccccc1CC[C@@H]1CN[C@H](c2nc3c(C)ccnc3[nH]2)CO1)C(c1ccccc1)c1ccccc1 [Example 23, methyl N-[(1S)-1-benzhydryl-2-[[2-[2-[(2R,5R)-5-(7-methyl-3H-imidazo[4,5-b]pyridin-2-yl)morpholin-2-yl]ethyl]phenyl]amino]-2-oxo-ethyl]carbamate]",3130 pM
24,"COC(=O)N[C@H](C(=O)Nc1ccccc1CC[C@@H]1CN[C@H](c2nc3c(C)cc(Cl)cc3[nH]2)CO1)C(c1ccccc1)c1ccccc1 [Example 24, methyl N-[(1S)-1-benzhydryl-2-[[2-[2-[(2R,5R)-5-(6-chloro-4-methyl-1H-benzimidazol-2-yl)morpholin-2-yl]ethyl]phenyl]amino]-2-oxo-ethyl]carbamate]",16300 pM
